Results: ChEMBL document CHEMBL4680318, “(S)-Erypoegin K, an isoflavone isolated from Erythrina poeppigiana, is a novel inhibitor of topoisomerase IIα: Induction of G2 phase arrest in human gastric cancer cells” (Bioorg Med Chem, 2021)
Activity calls are given as the source filed them. No cut-off for these calls is given here.

How the values were obtained:
[1] = Growth inhibition of human HBC4 cells measured after 48 hrs by sulforhodamine B assay; assay type: functional
[2] = Growth inhibition of human BSY1 cells measured after 48 hrs by sulforhodamine B assay; assay type: functional; conditions: BSY-1
[3] = system: MCF7; assay: Growth inhibition of human MCF7 cells measured after 48 hrs by sulforhodamine B assay; assay type: functional
[4] = system: MDA-MB-231; assay: Growth inhibition of human MDA-MB-231 cells measured after 48 hrs by sulforhodamine B assay; assay type: functional
[5] = system: SF-268; assay: Growth inhibition of human SF-268 cells measured after 48 hrs by sulforhodamine B assay; assay type: functional
[6] = system: SF-295; assay: Growth inhibition of human SF-295 cells measured after 48 hrs by sulforhodamine B assay; assay type: functional
[7] = system: SF-539; assay: Growth inhibition of human SF-539 cells measured after 48 hrs by sulforhodamine B assay; assay type: functional
[8] = system: SNB-75; assay: Growth inhibition of human SNB-75 cells measured after 48 hrs by sulforhodamine B assay; assay type: functional
[9] = system: SNB-78; assay: Growth inhibition of human SNB-78 cells measured after 48 hrs by sulforhodamine B assay; assay type: functional
[10] = system: HCC 2998; assay: Growth inhibition of human HCC 2998 cells measured after 48 hrs by sulforhodamine B assay; assay type: functional
[11] = system: KM12; assay: Growth inhibition of human KM12 cells measured after 48 hrs by sulforhodamine B assay; assay type: functional
[12] = system: HCT-15; assay: Growth inhibition of human HCT-15 cells measured after 48 hrs by sulforhodamine B assay; assay type: functional
[13] = system: HCT-116; assay: Growth inhibition of human HCT-116 cells measured after 48 hrs by sulforhodamine B assay; assay type: functional
[14] = system: NCI-H23; assay: Growth inhibition of human NCI-H23 cells measured after 48 hrs by sulforhodamine B assay; assay type: functional
[15] = system: NCI-H226; assay: Growth inhibition of human NCI-H226 cells measured after 48 hrs by sulforhodamine B assay; assay type: functional
[16] = system: NCI-H522; assay: Growth inhibition of human NCI-H522 cells measured after 48 hrs by sulforhodamine B assay; assay type: functional
[17] = system: NCI-H460; assay: Growth inhibition of human NCI-H460 cells measured after 48 hrs by sulforhodamine B assay; assay type: functional
[18] = system: A549; assay: Growth inhibition of human A549 cells measured after 48 hrs by sulforhodamine B assay; assay type: functional
[19] = system: DMS-273; assay: Growth inhibition of human DMS-273 cells measured after 48 hrs by sulforhodamine B assay; assay type: functional
[20] = system: LOX IMVI; assay: Growth inhibition of human LOX IMVI cells measured after 48 hrs by sulforhodamine B assay; assay type: functional
[21] = system: OVCAR-3; assay: Growth inhibition of human OVCAR-3 cells measured after 48 hrs by sulforhodamine B assay; assay type: functional
[22] = system: OVCAR-4; assay: Growth inhibition of human OVCAR-4 cells measured after 48 hrs by sulforhodamine B assay; assay type: functional
[23] = system: OVCAR-8; assay: Growth inhibition of human OVCAR-8 cells measured after 48 hrs by sulforhodamine B assay; assay type: functional
[24] = system: RXF 631; assay: Growth inhibition of human RXF 631 cells measured after 48 hrs by sulforhodamine B assay; assay type: functional
[25] = system: ACHN; assay: Growth inhibition of human ACHN cells measured after 48 hrs by sulforhodamine B assay; assay type: functional
[26] = system: St-4; assay: Growth inhibition of human St-4 cells measured after 48 hrs by sulforhodamine B assay; assay type: functional
[27] = system: MKN-28; assay: Growth inhibition of human MKN-28 cells measured after 48 hrs by sulforhodamine B assay; assay type: functional
[28] = system: MKN-45; assay: Growth inhibition of human MKN-45 cells measured after 48 hrs by sulforhodamine B assay; assay type: functional
[29] = system: MKN-74; assay: Growth inhibition of human MKN-74 cells measured after 48 hrs by sulforhodamine B assay; assay type: functional
[30] = system: DU-145; assay: Growth inhibition of human DU-145 cells measured after 48 hrs by sulforhodamine B assay; assay type: functional
[31] = system: PC-3; assay: Growth inhibition of human PC-3 cells measured after 48 hrs by sulforhodamine B assay; assay type: functional
[32] = biological target: DNA topoisomerase 2-alpha (Homo sapiens) (UniProt P11388); assay: Inhibition of human DNA topoisomerase 2alpha assessed as stabilization of DNA cleavage complex at 50 to 200 uM using supercoiled pSL1180 plasmid DNA as substrate measured after 30 mins by ethidium bromide staining-based UV imaging analysis; conditions: dose 50-200 µM
Sequence of DNA topoisomerase 2-alpha (Homo sapiens) (P11388 whole entry): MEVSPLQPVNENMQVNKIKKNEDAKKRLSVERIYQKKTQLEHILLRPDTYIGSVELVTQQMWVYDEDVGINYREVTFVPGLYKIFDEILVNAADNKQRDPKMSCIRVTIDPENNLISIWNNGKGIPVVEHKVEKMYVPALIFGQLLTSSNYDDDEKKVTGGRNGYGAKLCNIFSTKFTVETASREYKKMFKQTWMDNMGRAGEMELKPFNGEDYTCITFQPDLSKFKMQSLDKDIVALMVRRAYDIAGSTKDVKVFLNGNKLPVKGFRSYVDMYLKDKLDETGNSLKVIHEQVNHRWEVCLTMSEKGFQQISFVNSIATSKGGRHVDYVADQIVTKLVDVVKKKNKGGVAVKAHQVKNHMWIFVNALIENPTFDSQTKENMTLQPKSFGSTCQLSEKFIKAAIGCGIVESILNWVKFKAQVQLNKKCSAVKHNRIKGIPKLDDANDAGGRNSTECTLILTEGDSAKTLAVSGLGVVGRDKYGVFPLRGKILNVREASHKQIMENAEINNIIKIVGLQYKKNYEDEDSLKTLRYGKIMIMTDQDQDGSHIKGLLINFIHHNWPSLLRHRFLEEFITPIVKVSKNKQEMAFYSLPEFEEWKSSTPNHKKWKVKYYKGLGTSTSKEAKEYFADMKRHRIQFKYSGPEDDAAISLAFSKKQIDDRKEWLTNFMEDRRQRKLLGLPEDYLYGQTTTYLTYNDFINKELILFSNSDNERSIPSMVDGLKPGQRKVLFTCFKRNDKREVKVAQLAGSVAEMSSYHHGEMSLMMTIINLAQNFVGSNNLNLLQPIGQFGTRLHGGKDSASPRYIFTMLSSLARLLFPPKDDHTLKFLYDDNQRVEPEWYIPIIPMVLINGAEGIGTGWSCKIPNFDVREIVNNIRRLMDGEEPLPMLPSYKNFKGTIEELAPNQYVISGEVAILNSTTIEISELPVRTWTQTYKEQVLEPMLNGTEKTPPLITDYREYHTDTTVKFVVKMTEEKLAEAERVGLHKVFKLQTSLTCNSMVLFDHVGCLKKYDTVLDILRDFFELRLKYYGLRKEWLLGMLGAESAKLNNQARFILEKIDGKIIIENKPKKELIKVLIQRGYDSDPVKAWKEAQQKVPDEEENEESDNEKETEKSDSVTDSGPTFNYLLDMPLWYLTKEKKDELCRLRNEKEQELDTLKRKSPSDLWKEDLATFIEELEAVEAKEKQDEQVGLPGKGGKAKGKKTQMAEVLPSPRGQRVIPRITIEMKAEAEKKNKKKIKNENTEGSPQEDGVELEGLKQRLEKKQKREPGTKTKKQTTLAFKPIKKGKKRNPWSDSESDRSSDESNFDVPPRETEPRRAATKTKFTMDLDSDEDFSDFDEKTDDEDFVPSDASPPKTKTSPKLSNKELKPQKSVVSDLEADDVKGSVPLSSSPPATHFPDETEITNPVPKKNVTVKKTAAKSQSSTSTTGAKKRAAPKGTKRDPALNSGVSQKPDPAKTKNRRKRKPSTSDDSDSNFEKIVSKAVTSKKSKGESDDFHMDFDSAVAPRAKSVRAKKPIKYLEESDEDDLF

[33] = system: MKN-1; assay: Cytotoxicity against human MKN-1 cells assessed as reduction in cell viability measured after 48 hrs by MTS/CellTiter96 aqueous one solution cell proliferation assay; assay type: functional, cell-based; conditions: MKN-1, 48 h
[34] = system: GCIY; assay: Induction of apoptosis in human GCIY cells assessed as activation of caspase 3 measured after 5 to 35 hrs by fluorescence assay; assay type: functional, cell-based; conditions: dose 1-10 µM, time 5-35 hrs
[35] = system: GCIY; assay: Induction of apoptosis in human GCIY cells assessed as activation of caspase 3 at 1 to 10 uM by fluorescence assay; assay type: functional, cell-based; conditions: dose 1-10 µM, time 5-35 hrs, TDE = time-dependent effect
[36] = system: GCIY; assay: Induction of apoptosis in human GCIY cells assessed as activation of caspase 9 measured after 5 to 35 hrs by fluorescence assay; assay type: functional, cell-based; conditions: dose 1-10 µM, time 5-35 hrs
[37] = system: MKN-1; assay: Induction of apoptosis in human MKN-1 cells assessed as activation of caspase 3 measured after 5 to 35 hrs by fluorescence assay; assay type: functional, cell-based; conditions: dose 1-10 µM, time 5-35 hrs
[38] = system: MKN-1; assay: Induction of apoptosis in human MKN-1 cells assessed as activation of caspase 3 at 1 to 10 uM by fluorescence assay; assay type: functional, cell-based; conditions: dose 1-10 µM, time 5-35 hrs, TDE = time-dependent effect
[39] = system: MKN-1; assay: Induction of apoptosis in human MKN-1 cells assessed as activation of caspase 9 measured after 5 to 35 hrs by fluorescence assay; assay type: functional, cell-based; conditions: dose 1-10 µM, time 5-35 hrs
[40] = system: MKN-1; assay: Induction of apoptosis in human MKN-1 cells assessed as activation of caspase 9 at 1 to 10 uM by fluorescence assay; assay type: functional, cell-based; conditions: dose 1-10 µM, time 5-35 hrs, TDE = time-dependent effect
[41] = system: GCIY; assay: Cell cycle arrest in human GCIY cells assessed as accumulation at S phase at 0.1 uM measured after 24 hrs by propidium iodide staining based Muse cell analyzer (reference value: 25.7 +/- 0.7 %); assay type: functional
[42] = system: GCIY; assay: Cell cycle arrest in human GCIY cells assessed as accumulation at G2/M phase at 0.1 uM measured after 24 hrs by propidium iodide staining based Muse cell analyzer (reference value: 28.9 +/- 1.3 %); assay type: functional
[43] = system: GCIY; assay: Cell cycle arrest in human GCIY cells assessed as accumulation at S phase at 0.3 uM measured after 24 hrs by propidium iodide staining based Muse cell analyzer (reference value: 25.7 +/- 0.7 %); assay type: functional
[44] = system: GCIY; assay: Cell cycle arrest in human GCIY cells assessed as accumulation at G2/M phase at 0.3 uM measured after 24 hrs by propidium iodide staining based Muse cell analyzer (reference value: 28.9 +/- 1.3 %); assay type: functional
[45] = system: MKN-1; assay: Cell cycle arrest in human MKN-1 cells assessed as accumulation at S phase at 0.1 uM measured after 24 hrs by propidium iodide staining based Muse cell analyzer (reference value: 15.5 +/- 0.2 %); assay type: functional
[46] = system: MKN-1; assay: Cell cycle arrest in human MKN-1 cells assessed as accumulation at G0/G1 phase at 0.3 uM measured after 24 hrs by propidium iodide staining based Muse cell analyzer (reference value: 49.6 +/- 2.6 %); assay type: functional
[47] = system: MKN-1; assay: Cell cycle arrest in human MKN-1 cells assessed as accumulation at S phase at 0.3 uM measured after 24 hrs by propidium iodide staining based Muse cell analyzer (reference value: 15.5 +/- 0.2 %); assay type: functional

GI50 [3]: 138 nM | GI50 [4]: 1740 nM | GI50 [10]: 2040 nM | GI50 [12]: 676 nM | GI50 [13]: 1070 nM | GI50 [14]: 380 nM | GI50 [15]: 295 nM | GI50 [16]: 1580 nM | GI50 [17]: 70.8 nM | GI50 [18]: 120 nM | GI50 [21]: 2880 nM | GI50 [22]: > 100000 nM | GI50 [23]: 417 nM | GI50 [25]: 182 nM | GI50 [27]: 7080 nM | GI50 [28]: 347 nM | GI50 [29]: 6920 nM | GI50 [30]: 316 nM | GI50 [31]: > 100000 nM | inhibition [32]: Active
SMILES: CC(C)(O)[C@@H]1Cc2c(cc(O)c3c(=O)c(-c4ccc(O)cc4)coc23)O1
GI50 [1]: 1740 nM | GI50 [2]: 631 nM | GI50 [5]: 457 nM | GI50 [6]: 275 nM | GI50 [7]: 347 nM | GI50 [8]: 537 nM | GI50 [9]: 5890 nM | GI50 [11]: 813 nM | GI50 [19]: 195 nM | GI50 [20]: 257 nM | GI50 [24]: 5010 nM | GI50 [26]: 6030 nM | IC50 [33]: 327 nM | Activity [34]: Dose-dependent effect | Activity [35]: Tde | Activity [36]: Dose-dependent effect | Activity [37]: Dose-dependent effect | Activity [38]: Tde | Activity [39]: Dose-dependent effect | Activity [40]: Tde | Activity [41]: 22.4% | Activity [42]: 40.4% | Activity [43]: 7% | Activity [44]: 87.3% | Activity [45]: 12.3% | Activity [46]: 4.9% | Activity [47]: 9.5%
